From publication PMC7558399, “In Vitro Selective Growth-Inhibitory Activities of Phytochemicals, Synthetic Phytochemical Analogs, and Antibiotics against Diarrheagenic/Probiotic Bacteria and Cancer/Normal Intestinal Cells” (Pharmaceuticals, 2020)
In brackets after ≈: the same amount, converted by molar mass. Read-outs that look alike come from different tables or passages of the source.

Tests used:
Type in all cases: cell-based
[1] = system: Bacillus cereus (ATCC 14579); test: Broth microdilution MIC, B. cereus
[2] = system: Clostridium difficile (DSMZ 12056); test: microbe, parasite or virus in culture; conditions: Clostridioides difficile, DSMZ12056
[3] = system: Clostridium perfringens (DSMZ 11778); test: microbe, parasite or virus in culture; conditions: DSMZ11778
[4] = system: Enterococcus faecalis (ATCC 29212); test: Broth microdilution MIC, E. faecalis
[5] = system: Escherichia coli (ATCC 25922); test: Broth microdilution MIC, E. coli
[6] = system: E. coli 0175:H7 (NCTC 12900); test: microbe, parasite or virus in culture; conditions: Escherichia coli, NCTC12900
[7] = system: Listeria monocytogenes (ATCC 7644); test: Broth microdilution MIC, L. monocytogenes
[8] = system: Shigella flexneri (ATCC 12022); test: microbe, parasite or virus in culture; conditions: ATCC12022
[9] = system: Salmonella enterica ssp. enterica serovar Enteritidis (ATCC 13076); test: Broth microdilution MIC, Salmonella Enteritidis
[10] = system: S. enterica ssp. enterica serovar Typhimurium (ATCC 14028); test: Broth microdilution MIC, Salmonella Typhimurium
[11] = system: Vibrio parahaemolyticus (ATCC 17802); test: Broth microdilution MIC, V. parahaemolyticus
[12] = system: Yersinia enterocolitica (ATCC 9610); test: Broth microdilution MIC, Y. enterocolitica
[13] = system: diarrheagenic bacteria (12 strains); test: microbe, parasite or virus in culture; conditions: read-out: x¯ -DB ± SD: mean MIC for diarrheagenic bacteria
[14] = system: Bacteroides fragilis (ATCC 25285); test: Broth microdilution MIC, B. fragilis
[15] = system: Bifidobacterium adolescentis (DSMZ 20087); test: Broth microdilution MIC, B. adolescentis
[16] = system: Bifidobacterium animalis spp. lactis (DSMZ 10140); test: Broth microdilution MIC, B. animalis spp. lactis; conditions: DSMZ10140
[17] = system: Bifidobacterium bifidum (ATCC 29521); test: Broth microdilution MIC, B. bifidum
[18] = system: Bifidobacterium breve (ATCC 15700); test: Broth microdilution MIC, B. breve
[19] = system: Bifidobacterium longum ssp. longum (DSMZ 20219); test: Broth microdilution MIC, B. longum ssp. longum; conditions: DSMZ20219
[20] = system: Lactobacillus casei (DSMZ 20011); test: Broth microdilution MIC, L. casei; conditions: Lacticaseibacillus casei, DSMZ20011
[21] = system: Lactobacillus reuteri (CCM 3625); test: Broth microdilution MIC, L. reuteri; conditions: Limosilactobacillus reuteri, CCM3625
[22] = system: Lactobacillus rhamnosus (CCM 7091); test: Broth microdilution MIC, L. rhamnosus; conditions: Lacticaseibacillus rhamnosus, CCM7091
[23] = system: probiotic bacteria (9 strains); test: Broth microdilution MIC, probiotic bacteria as a group (mean or range over strains); conditions: read-out: x¯ -PB ± SD: mean MIC for probiotic bacteria
[24] = system: HT29 (ATCC HTB 38) intestinal cancer cells; test: MTT cytotoxicity assay, HT29; conditions: Homo sapiens; for IC50: read-out: IC50 ± SD; for IC80: read-out: IC80 ± SD (80% inhibitory concentration of proliferation)
[25] = system: Caco-2 (ATCC HTB 37) intestinal cancer cells; test: MTT cytotoxicity assay, Caco-2; conditions: Homo sapiens; for IC50: read-out: IC50 ± SD; for IC80: read-out: IC80 ± SD (80% inhibitory concentration of proliferation)
[26] = system: intestinal cancer cells (HT29 and Caco-2); test: MTT cytotoxicity assay, mean for intestinal cancer cells; conditions: for IC50: read-out: x¯ -CC ± SD: mean IC50 for intestinal cancer cells; for IC80: read-out: x¯ -CC ± SD: mean IC80 for intestinal cancer cells
[27] = system: FHs 74 Int (ATCC CCL 241) intestinal normal cells; test: MTT cytotoxicity assay, FHs 74 Int; conditions: FHs74Int, 72 h; for IC50: read-out: IC50 ± SD; for IC80: read-out: IC80 ± SD (80% inhibitory concentration of proliferation)
[28] = system: 21 strains (diarrheagenic and probiotic bacteria); test: organism not typed; conditions: any of the 21 strains
[29] = FHs 74 Int (intestinal normal cells), MTT

In the case of O=S(=O)(O)c1cc(I)c(O)c2ncccc12 [FRN, 7-iodo-8-hydroxyquinoline-5-sulfonic acid], the MIC ([1]; ATCC14579, growth inhibited by ≥80%, median/mode, read-out: MIC) is reported as 512 µg/mL (≈ 1460 µM), the MIC ([2]; Clostridium difficile, […], read-out: MIC) is reported as 64 µg/mL (≈ 182 µM) and the MIC [3] is reported as 64 µg/mL (≈ 182 µM). The MIC ([4]; ATCC29212, growth inhibited by ≥80%, read-out: MIC) was > 512 µg/mL, the MIC ([5]; ATCC25922, growth inhibited by ≥80%, read-out: MIC) was > 512 µg/mL and the MIC [6] was > 512 µg/mL. For the same compound, the MIC ([7]; ATCC7644, growth inhibited by ≥80%, read-out: MIC) was 512 µg/mL (≈ 1460 µM), the MIC [8] was > 512 µg/mL and the MIC ([9]; Salmonella Enteritidis, growth inhibited by ≥80%, read-out: MIC) was > 512 µg/mL. For the same compound, the MIC ([10]; Salmonella Typhimurium, growth inhibited by ≥80%, read-out: MIC) was > 512 µg/mL, the MIC ([11]; ATCC17802, growth inhibited by ≥80%, read-out: MIC) was 256 µg/mL (≈ 729 µM) and the MIC ([12]; ATCC9610, growth inhibited by ≥80%, read-out: MIC) was > 512 µg/mL. The MIC ([13]; mean of 12 strains, >512 replaced with 1024) was 715 ± 388 µg/mL (≈ 2040 µM), the MIC ([14]; ATCC25285, growth inhibited by ≥80%, read-out: MIC) was 128 µg/mL (≈ 365 µM) and the MIC ([15]; DSMZ20087, growth inhibited by ≥80%, read-out: MIC) was 256 µg/mL (≈ 729 µM). It also gave an MIC ([16]; Bifidobacterium animalis spp. lactis, growth inhibited by ≥80%, read-out: MIC) of 512 µg/mL (≈ 1460 µM), an MIC ([17]; ATCC29521, growth inhibited by ≥80%, read-out: MIC) of 512 µg/mL (≈ 1460 µM) and an MIC ([18]; ATCC15700, growth inhibited by ≥80%, read-out: MIC) of 512 µg/mL (≈ 1460 µM). For the same compound, the MIC ([19]; Bifidobacterium longum ssp. longum, growth inhibited by ≥80%, read-out: MIC) was 256 µg/mL (≈ 729 µM), the MIC ([20]; Lactobacillus casei, growth inhibited by ≥80%, read-out: MIC) was 256 µg/mL (≈ 729 µM) and the MIC ([21]; Lactobacillus reuteri, growth inhibited by ≥80%, read-out: MIC) was 512 µg/mL (≈ 1460 µM). The MIC ([22]; Lactobacillus rhamnosus, growth inhibited by ≥80%, read-out: MIC) was 512 µg/mL (≈ 1460 µM), the MIC ([23]; mean of 9 strains, >512 replaced with 1024) was 384 ± 148 µg/mL (≈ 1090 µM) and the IC50 ([24]; HT-29, HT29, MTT, 72 h) was 86.3 ± 12 µg/mL (≈ 246 µM). It also gave an IC80 ([24]; HT-29, HT29, MTT, 72 h) of 149 ± 6 µg/mL (≈ 425 µM), an IC50 ([25]; Caco-2, MTT, 72 h) of 55.2 ± 4.8 µg/mL (≈ 157 µM) and an IC80 ([25]; Caco-2, MTT, 72 h) of 140 ± 26 µg/mL (≈ 398 µM). For the same compound, the IC50 ([26]; mean of HT29 and Caco-2, >512 replaced with 1024) was 70.8 ± 16 µg/mL (≈ 202 µM), the IC80 [26] was 145 ± 4.8 µg/mL (≈ 412 µM) and the IC50 [27, 29] was 22.6 ± 3.3 µg/mL (≈ 64.4 µM). The IC80 [27, 29] was 46 ± 2.2 µg/mL (≈ 131 µM) and the MIC [28] was ≥ 64 µg/mL.

For Oc1cccc2cccnc12 [8HQ, 8-hydroxyquinoline], the MIC ([1]; ATCC14579) was 512 µg/mL (≈ 3530 µM), the MIC [2] was 128 µg/mL (≈ 882 µM) and the MIC [3] was 128 µg/mL (≈ 882 µM). For the same compound, the MIC ([4]; ATCC29212) was 4 µg/mL (≈ 27.6 µM), the MIC ([5]; ATCC25922) was 128 µg/mL (≈ 882 µM) and the MIC [6] was 256 µg/mL (≈ 1760 µM). It also gave an MIC ([7]; ATCC7644) of 1 µg/mL (≈ 6.89 µM), an MIC [8] of 128 µg/mL (≈ 882 µM) and an MIC [9] of 256 µg/mL (≈ 1760 µM). The MIC [10] was 512 µg/mL (≈ 3530 µM), the MIC ([11]; ATCC17802) was 128 µg/mL (≈ 882 µM) and the MIC ([12]; ATCC9610) was 512 µg/mL (≈ 3530 µM). The MIC [13] was 224 ± 181 µg/mL (≈ 1550 µM), the MIC ([14]; ATCC25285) was 32 µg/mL (≈ 220 µM) and the MIC ([15]; DSMZ20087) was 512 µg/mL (≈ 3530 µM). For the same compound, the MIC ([16]; Bifidobacterium animalis) was > 512 µg/mL, the MIC ([17]; ATCC29521) was 512 µg/mL (≈ 3530 µM) and the MIC ([18]; ATCC15700) was > 512 µg/mL. For the same compound, the MIC ([19]; Bifidobacterium longum) was 512 µg/mL (≈ 3530 µM), the MIC [20] was > 512 µg/mL and the MIC [21] was > 512 µg/mL. For the same compound, the MIC [22] was > 512 µg/mL, the MIC [23] was 743 ± 343 µg/mL (≈ 5120 µM) and the IC50 ([24]; HT-29, 72 h) was 1.3 ± 0.3 µg/mL (≈ 8.96 µM). It also gave an IC80 ([24]; HT-29, 72 h) of 4.8 ± 2.8 µg/mL (≈ 33.1 µM), an IC50 ([25]; Caco-2, 72 h) of 0.3 ± 0.1 µg/mL (≈ 2.07 µM) and an IC80 ([25]; Caco-2, 72 h) of 0.9 ± 0.1 µg/mL (≈ 6.2 µM). It also gave an IC50 [26] of 0.8 ± 0.5 µg/mL (≈ 5.51 µM), an IC80 [26] of 2.9 ± 2 µg/mL (≈ 20 µM) and an IC50 [27] of 10.7 ± 0.2 µg/mL (≈ 73.7 µM). The IC80 [27] was 20.3 ± 2.4 µg/mL (≈ 140 µM).
